Patent publication US10766857B2, “Compound having BLT inhibitory activity and composition, for preventing or treating inflammatory diseases, comprising same as active ingredient” (DONGGUK UNIVERSITY INDUSTRY-ACADEMIC COOPERATION FOUNDATION, priority 2015, dated 2020)

Key:
[1] = test system: asthma-induced mice (OVA+LPS); test: OVA+LPS-induced severe asthma mice: AHR and cell influx; type: in vivo; settings: for AHR reduced: airway constrictor 50 mg/ml
Text: Mast cells play a pivotal role in the initial reaction to asthma, and when an allergen enters the body from the outside through an airway, the mast cells are activated, thereby secreting various cytokines (interleukin-4 and interleukin-13). Due to the cytokines, the influx of inflammatory cells, the generation of mucus and the airway contraction occur. The inventors used 7-week-old (18 to 20 g) female BALB/c mice provided by Orient (Seoungnam, Korea) for the experiment to confirm the antiasthma effect, and then the asthma was induced in the mice. On the first and 14th days, 2.5 mg of an adjuvant, aluminum hydroxide gel (alum; Pierce, Rockford, Ill.) was included in […] of ovalbumin (OVA) to intraperitoneally sensitize female […] mice. On the 21st, 22nd and 23rd days of two initial sensitizations, 1% OVA was sprayed into the mice using an ultrasonic nebulizer. The compound of the present invention (LMT-696; 5 mg/kg), LY255283 (5 mg/kg, Cayman) or DMSO was intraperitoneally injected at the 1 hour before the 1% OVA spraying. On the 24th day of the initial sensitization, airway hyperresponsiveness (AHR) was detected, and on the 25th day, the mice were dissected to observe asthma phenotypes, for example, inflammatory cytokine IL-4 expression and the influx of inflammatory cells (neutrophils). In the case of lipopolysaccharide (LPS)-induced severe asthma animal models, on the 0, 1st, 2nd and 7th days, 75 μg of OVA and 1 mg of LPS were intranasally injected into Balb/c mice for sensitization. On the 14th, 15th, 21th and 22th days, 50 μg of OVA was injected into the nose for a challenge. The compound of the present invention (LMT-1013) (1, 3, 10 or 30 mg/kg), montelukast (10 mg/kg, DRS) or a control buffer (10% DMA, 5% Tween 80, 85% brine) were treated one hour before the challenge by injecting 50 μg of OVA into the nose. On the 23rd day of the initial sensitization, AHR was detected, and on the 24th day, the mice were dissected to observe a severe asthma phenotype, for example, the influx of the inflammatory cells (neutrophils). In addition, the AHR detection was performed after an airway constrictor, methacholine (6.25 to 50 mg/ml depending on conditions), was administered to the mice. The administration of the airway constrictor was performed by spraying through an inlet of the chamber using an ultrasonic nebulizer for 3 minutes. The AHR was analyzed using an enhanced pause as the indicator of the asthma phenomenon. Bronchoalveolar lavage fluid cell counts were quantified by counting cells under an optical microscope (magnification, 200×). In each analysis, 4 fields were subjected to counting, each sample was analyzed twice, and the analysis was repeated three times.

[2] = target: T1, BLT2 (Homo sapiens, UniProt Q9NPC1); test: [3H]LTB4 and BLT2 binding inhibition, CHO-BLT2 cell membrane proteins; settings: [3H]LTB4 5 nM
T1 construct: HA; expressed in transfected cells
T1 sequence (Q9NPC1 with tags, fused parts or gaps): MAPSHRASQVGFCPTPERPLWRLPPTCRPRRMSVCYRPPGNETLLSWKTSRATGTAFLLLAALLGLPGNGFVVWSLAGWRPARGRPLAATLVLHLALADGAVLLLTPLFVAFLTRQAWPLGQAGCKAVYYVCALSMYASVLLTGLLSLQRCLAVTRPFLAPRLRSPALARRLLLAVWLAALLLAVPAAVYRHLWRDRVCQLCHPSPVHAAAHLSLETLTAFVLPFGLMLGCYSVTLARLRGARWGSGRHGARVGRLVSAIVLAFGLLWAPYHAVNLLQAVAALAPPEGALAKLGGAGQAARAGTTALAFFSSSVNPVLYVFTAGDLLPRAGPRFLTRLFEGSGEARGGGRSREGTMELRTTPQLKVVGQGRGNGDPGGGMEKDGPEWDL
Procedure: The inhibition of LTB4 and BLT2 binding (ligand binding affinity) was analyzed using radioactive tritium (^3H)-labeled LTB4 ([^3H]LTB4, ARC; specific activity 160.0 Ci/mmol). After 2×10^6 of CHO-BLT2 cells were plated into a 100-mm culture dish and cultured for 48 hours, an experimental method was carried out as follows: Collected cells were treated using a homogenizer a total of five times for 1 minute each to separate proteins of the cell membrane. Afterward, the cells were subjected to centrifugation at 4° C. and 45,000 rpm for 40 minutes to only collect the proteins of the cell membrane, and thereby, a protein concentration of 40 μg/45 μL was quantified. When a BLT2-containing cell membrane proteins which were quantified in the same manner was treated with the same amount of [^3H]LTB4 (5 nM), and then a different concentration (10^−9, 10^−8, 10^−7, 10^−6 or 10^−5 M) of a compound, a degree of inhibiting the tritium-labeled LTB4 and BLT2 binding was measured using a Hidex 300sL liquid scintillation counter.

[3] = target: T2, BLT1 (Homo sapiens, UniProt Q15722); test: LTB4-induced chemotactic motility, Transwell, CHO-BLT1 cells; type: cell-based; settings: LTB4 10 nM, serum-free, read-out: IC50 of chemotactic motility inhibition
T2 construct: expressed in transfected cells; host or cells: CHO cells stably expressing BLT1 (CHO-BLT1)
T2 sequence (Q15722 whole entry, species assumed): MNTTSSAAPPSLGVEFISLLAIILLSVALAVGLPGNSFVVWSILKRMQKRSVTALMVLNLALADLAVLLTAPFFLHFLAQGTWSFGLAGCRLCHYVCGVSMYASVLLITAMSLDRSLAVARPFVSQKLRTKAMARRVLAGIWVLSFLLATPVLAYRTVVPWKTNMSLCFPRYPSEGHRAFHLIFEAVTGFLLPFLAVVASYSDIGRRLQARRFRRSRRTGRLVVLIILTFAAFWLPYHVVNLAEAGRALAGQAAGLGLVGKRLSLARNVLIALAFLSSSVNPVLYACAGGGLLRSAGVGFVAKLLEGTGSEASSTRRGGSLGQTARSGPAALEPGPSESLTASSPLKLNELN
Procedure: (§1) Chemotactic motility was analyzed using a Transwell chamber including a polycarbonate filter (8-μm pore size, Corning Costar) with a 6.5-mm diameter. Specifically, the lower surface of the filter was coated with 10 μg/mL fibronectin in a serum-free RPMI 1640 medium at 37° C. for 1 hour. The experiment was performed by placing the filter dried and coated with RPMI 1640 media containing various amounts of LTB4 in the lower wells of the Transwell chamber, and loading CHO cells stably expressing BLT1 and BLT2 into the upper wells containing serum-free RPMI 1640 media finally at 2×10^4 cells/100 μL. To evaluate the effect of inhibitors, the cells were pre-treated with each inhibitor for 30 minutes before dispensing. After the cells were cultured at 37° C. in 5% CO2 for 3 hours, the filters were fixed with methanol for 3 minutes, and stained with hematoxylin and eosin for 10 minutes. In the experiment, the cells were BLT2-expressing cells (CHO-BLT2 cells) and BLT1-expressing cells (CHO-BLT1 cells), and LY255283 and U75302 were used as positive controls for each type of the cells, and BLT2 ligand LTB4, (300 nM), BLT1 ligand LTB4 (10 nM), and lysophosphatidic acid (LPA; 100 nM) were used as comparative controls. The chemotactic motility was quantitatively analyzed by counting the cells on the lower side of the filter under an optical microscope (magnification, 200×). For each analysis, 6 fields were subjected to counting, each sample was analyzed twice, and the analysis was repeated three times.

[4] = target: T3, BLT2-expressing cells (CHO-BLT2 cells) (Homo sapiens, UniProt Q9NPC1); test: MTT cell growth of LTB4-stimulated BLT2-expressing cells; type: cell-based; settings: pre-treated at 10 μM, LTB4 300 nM
T3 construct: HA; expressed in transfected cells
T3 sequence (Q9NPC1 with tags, fused parts or gaps): T1 sequence (Q9NPC1 with tags, fused parts or gaps)
Procedure: Cell viability according to treatment of the compounds prepared in the examples were measured by a 3-(4,5-dimethylthiazol-2-yl)-2,5-diphenyltetrazolium bromide (MTT) method.
More specifically, 1×10^4 each of the BLT2-nonexpressing cells (CHO-pcDNA3.1 cells) and BLT2-expressing cells (CHO-BLT2 cells), which were prepared in Experimental Example 1, were dispensed in a […], and cultured for 24 hours. Afterward, the culture medium was removed, a serum-free RPMI medium was added, and after two hours, the cells were pre-treated with each of the compound prepared in one of the examples (10 μM), 10 μM DMSO (compound solvent) as a control, and 10 μM 1-[5-ethyl-2-hydroxy-4-[[6-methyl-6-(1H-tetrazol-5-yl)heptyl]oxy]phenyl]-ethanone (LY255283; Cayman) as a positive control for 1 hour. Subsequently, after treatment of LTB4 (300 nM), the cells were cultured for 24 hours. 20 μL of an MTT solution (5 mg/mL, Sigma-Aldrich) was added to each well, the cells were cultured in a humid CO2 incubator at 37° C. for 4 hours, a supernatant was removed, and 200 μL of DMSO was added to each well to dissolve insoluble violet formazan crystals. Absorbance was measured using a microplate reader (Molecular Devices, Sunnyvale, Calif.) at 550 nm, and the measurement was repeated three times.

[5] = target: T1, BLT2; test: LTB4-induced chemotactic motility, Transwell, CHO-BLT2 cells; type: cell-based; settings: LTB4 300 nM, serum-free, read-out: IC50 of chemotactic motility inhibition
Procedure: as §1

IC50 [2]: 30.7 nM
IC50 [3]: ≥ 10000 nM
cell growth compared with the control DMSO [4]: 96.3%
IC50 [5]: 62.4 nM
Compound: CCCCC(=O)N(CC#Cc1ccc(C(=O)O)cc1)c1ccccc1 [LMT-1013, 4-(3-(N-phenylpentaneamido)prop-1-yn-1-yl)benzoic acid]
neutrophils reduced ([1]; 1 mg/kg, FIGS. 13A-13C): 51.6%
neutrophils reduced ([1]; 1 mg/kg, FIGS. 14A-14B): 42.2%
AHR reduced ([1]; 1 mg/kg): 48.6%
neutrophils reduced ([1]; 3 mg/kg, FIGS. 14A-14B): 48.8%
AHR reduced ([1]; 3 mg/kg): 52.9%
neutrophils reduced ([1]; 10 mg/kg, FIGS. 13A-13C): 90.3%
neutrophils reduced ([1]; 10 mg/kg, FIGS. 14A-14B): 71.8%
AHR reduced ([1]; 10 mg/kg): 83.2%
neutrophils reduced ([1]; 30 mg/kg, FIGS. 14A-14B): 88.3%
AHR reduced ([1]; 30 mg/kg): 87.3%
total cells entering the abdominal cavity of the mice ([1]; 1, 3, 10 and 30 mg/kg, FIGS. 14A-14B): reduced
total cells entering the abdominal cavity of the mice ([1]; 1 and 10 mg/kg, FIGS. 13A-13C): reduced
